Data published in PubChem BioAssay (NCI).
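Each compound was tested at five concentrations against cells in 96-well plates for 48 hours. Definition used: TGI = concentration required for complete inhibition of growth.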

Experiments:
Assay in all cases: growth of human tumour cells (NCI), 48 h
IGROV1 ovarian = tested on: IGROV1 ovarian
LOX IMVI melanoma = tested on: LOX IMVI melanoma
MCF7 breast = tested on: MCF7 breast
MDA-MB-231 breast = tested on: MDA-MB-231 breast
MDA-MB-435 = tested on: MDA-MB-435
MDA-N = tested on: MDA-N
MOLT-4 leukemia = tested on: MOLT-4 leukemia
SK-MEL-2 melanoma = tested on: SK-MEL-2 melanoma
SR leukemia = tested on: SR leukemia
UACC-62 melanoma = tested on: UACC-62 melanoma

Row | Compound | TGI (IGROV1 ovarian) | TGI (LOX IMVI melanoma) | TGI (MCF7 breast) | TGI (MDA-MB-231 breast) | TGI (MDA-MB-435) | TGI (MDA-N) | TGI (MOLT-4 leukemia) | TGI (SK-MEL-2 melanoma) | TGI (SR leukemia) | TGI (UACC-62 melanoma)
1 | CC(=O)CC1(CBr)Nc2ccc([N+](=O)[O-])cc2NC1=O (configuration not stated) | > 100 µM | > 100 µM | > 100 µM | > 100 µM | > 100 µM | > 100 µM | > 100 µM | > 100 µM | > 100 µM | > 100 µM
2 | O=C(O)c1c(CC(Cc2ccc3c(c2)CCC3)C(=O)O)ccc2c1CCC2 (configuration not stated) | > 100 µM | > 100 µM | > 100 µM | > 100 µM | > 100 µM | > 100 µM | > 100 µM | > 100 µM | > 100 µM | 
3 | Cn1/c(=N\N=C2\C=C3CCCCC3(C)CC2)sc2ccccc21 (configuration not stated) | > 100 µM | > 100 µM | > 100 µM | > 100 µM | > 100 µM | > 100 µM |  | > 100 µM | > 100 µM | > 100 µM
4 | O=CCCCCCOCc1ccccc1 | > 100 µM | 34.9 µM | > 100 µM | > 100 µM | > 100 µM | > 100 µM | 37.4 µM | > 100 µM | > 100 µM | > 89.4 µM
5 | Clc1ccc2c(c1)N(CCCN1CCCC13CCCCC3)c1ccccc1S2 | 30.3 µM | 26.5 µM | 32.3 µM | 21.5 µM | 27.4 µM | 26.2 µM | 18.9 µM | 22.1 µM | 17.5 µM | 31.1 µM
6 | CN(CCCCCl)P(=O)(OCc1ccc([N+](=O)[O-])o1)OCC1OC(n2ccc(N)nc2=O)C(O)C1O (configuration not stated) | 16.3 µM | 20.5 µM | 17 µM | 67.3 µM | 8.21 µM | 40.3 µM | 11 µM | 53.1 µM | 43.9 µM | 40.6 µM
7 | O=S(=O)(Nc1nc2ccccc2nc1N1CCCCCC1)c1ccccc1 | > 100 µM | > 100 µM | > 100 µM | > 100 µM | 64.6 µM | > 100 µM | 44.2 µM | 33.4 µM | > 100 µM | 52.9 µM
8 | Cc1cn(CCCCCCOC(=O)NC(CCCNC(N)=O)C(=O)O)c(=O)[nH]c1=O (configuration not stated) | > 100 µM | > 100 µM | > 100 µM | > 100 µM | > 100 µM | > 100 µM | > 100 µM | > 100 µM | > 100 µM | > 100 µM
9 | C[n+]1cccc2ccc3cccnc3c21 | > 100 µM | > 100 µM | > 100 µM | > 100 µM | > 100 µM | > 100 µM | > 100 µM | 97.1 µM | > 100 µM | > 100 µM
10 | Oc1ccc(C(O)C2CCCCN2)cc1O (configuration not stated) | > 100 µM | 65.5 µM | > 100 µM | > 100 µM | > 100 µM | > 100 µM |  | > 100 µM | > 100 µM | > 100 µM
11 | Nc1c(C(=O)c2ccc(Cl)c(Cl)c2)[nH]c(NCc2ccccc2)c1C(=S)Nc1ccccc1 | 26.5 µM | 4.53 µM | 12.3 µM | 17.6 µM | 18.3 µM | 14.5 µM | > 100 µM | 25.9 µM | > 100 µM | 29.2 µM
12 | NC(=O)[C@H](Cc1ccc(O)cc1)Nc1c(O)c2c(c(O)c1Cl)C(=O)C=CC2=O | 4.66 µM | > 4.65 µM | 2.97 µM | 5.23 µM | 4 µM | 4.1 µM | 2.43 µM | > 10 µM | 5.26 µM | 4.29 µM
13 | COc1ccc(CCNC(=O)Cc2ccccc2CO)cc1OC | > 100 µM | > 100 µM | > 100 µM | > 100 µM | > 100 µM | > 100 µM | > 100 µM | > 100 µM | > 100 µM | > 100 µM
14 | CC(C)(CO[C@H]1C[C@H]2CC[C@@]1(C)C2(C)C)[N+](=O)[O-] | > 100 µM | 35.1 µM | 49.9 µM | 34.6 µM | 34 µM | 29.4 µM | 50.5 µM | 31.3 µM | 42.3 µM | 41.7 µM
15 | Cc1c(C)c2c(c(N)c1C#N)C(=O)N(N)C2=O | > 100 µM |  | > 100 µM | > 100 µM | > 100 µM | > 100 µM | > 100 µM | > 100 µM | > 100 µM | > 100 µM
16 | COc1ccc(N2C(=O)C3c4[nH]c5c(C)cccc5c4C4CCC(C(C)C)CC4C3C2=O)cc1 (configuration not stated) | 23.5 µM | 19.3 µM | 31.4 µM | 34.8 µM | 23.3 µM | 29.2 µM | 11.2 µM | 35.3 µM | 32.5 µM | 
17 | COC1/C=C/C(C)C(O)CC(O)/C=C/C(C)C(C(C)C(OC)C(C)CCC(=O)C(C)C(C/C=C/N(C)C=O)OC)OC(=O)/C=C/C=C(\C)CC(OC)CC2=CC(=O)O[C@@H](C(C)C(OC)C1)[C@H]2O (some centres not stated) | 0.0689 µM |  | 0.0909 µM |  | 0.906 µM | 0.136 µM | 28.2 µM |  | 24.6 µM | 0.019 µM
18 | O=C1[C@@H]2[C@@H](CN3CN(c4ccccc4)N=C(c4ccccc4)[C@@]23c2ccccc2)C(=O)N1c1ccccc1 | 29.5 µM | 3.3 µM | 4.04 µM | 16.6 µM | 23.2 µM | 20.1 µM | > 100 µM | 40.3 µM | > 100 µM | 20.1 µM
19 | CCc1nc(N)c2nc(-c3cccs3)oc2n1 | > 100 µM | > 100 µM | > 100 µM | > 100 µM | > 100 µM | > 100 µM | > 100 µM | > 100 µM | > 100 µM | > 100 µM
20 | COc1cc2c(cc1OC)C(=O)N(c1ccc(OCCN3CCCC3)cc1)C2 | > 100 µM | > 100 µM | > 100 µM | > 100 µM | > 100 µM | > 100 µM | > 100 µM | > 100 µM | > 100 µM | > 100 µM
21 | O=C(CNc1ccccc1C(=O)O)Nn1cnc2ccc(S(=O)(=O)Nc3ccccc3C(=O)O)cc2c1=O | > 100 µM | > 100 µM | > 100 µM | > 100 µM | > 100 µM | > 100 µM | > 100 µM | > 100 µM | > 100 µM | > 100 µM
